Our source for the IC50 values is ChEMBL document CHEMBL6087458, “The Discovery of a Novel AXL/Triple Angiokinase Inhibitor Based on 6-Chloro-Substituted Indolinone and Side Chain Methyl Substitution Inhibiting Pancreatic Cancer Growth and Metastasis” (J Med Chem, 2025).

A word on the IC50: it is the concentration that gives 50% inhibition.

The nature of data set [1]: Cytotoxicity against mouse NIH/3T3 cells assessed as cell viability incubated for 72 hrs by MTT assay. The format is toxicity, cell-based, NIH3T3.
Data set [2] is described as follows: Cytotoxicity against human HUVEC cells assessed as cell viability incubated for 72 hrs by MTT assay. The format is toxicity, cell-based. (Tetrazolium dyes change colour on reduction, which living cells bring about.)
Another data set deals with BXPC-3. The data set can be described thus: cells. The note with it: Homo sapiens, BXPC-3, 72 h.
The next data set has as its system MDA-MB-231. The data set is described as follows: cells. The note with it: Homo sapiens, MDA-MB-231, 72 h.

Each structure is given as a SMILES string.

Description for BXPC-3: Antiproliferative activity against human BXPC-3 cells assessed as cell viability incubated for 72 hrs by MTT assay
Description for MDA-MB-231: Antiproliferative activity against human MDA-MB-231 cells assessed as cell viability incubated for 72 hrs by MTT assay

With `COC(=O)c1ccc2c(c1)NC(=O)/C2=C(\Nc1ccc(N(C)C(=O)[C@H](C)N2CCN(C)CC2)cc1)c1ccccc1`, the IC50 at 72 h in data set [1] was 1.17 µM; in data set [2], 1.65 µM.
As for `CC(C(=O)N(C)c1ccc(N/C(=C2\C(=O)Nc3cc(Br)ccc32)c2ccccc2)cc1)N1CCN(C)CC1` (racemic), the IC50 at 72 h in data set [1] was 2.14 µM; in data set [2], 0.95 µM. For the same compound, the IC50 in the data set with BXPC-3 stood at 1.89 µM; in the data set on MDA-MB-231 it was 1.44 µM.
Turning to `CN(C(=O)CN1CCOCC1)c1ccc(N/C(=C2\C(=O)Nc3cc(Br)ccc32)c2ccccc2)cc1`, the IC50 at 72 h in data set [1] and in data set [2] was more than 10 µM in each case. For the same compound, the 50% inhibitory concentration (IC50) in the data set with BXPC-3 and in the data set on MDA-MB-231 was more than 10 µM throughout.
For `CN1CCN(CC(=O)N(C)c2ccc(N/C(=C3\C(=O)Nc4cc(Cl)ccc43)c3ccccc3)cc2)CC1`, the IC50 at 72 h in data set [1] worked out at 3.11 µM; in data set [2] it was 1.8 µM. In addition, the IC50 stood at 2.98 µM in the data set with BXPC-3 and 4.54 µM in the data set on MDA-MB-231.
As to `COC(=O)c1ccc2c(c1)NC(=O)/C2=C(\Nc1ccc(N(C)C(=O)C(C)N2CCSCC2)cc1)c1ccccc1` (racemic), the IC50 at 72 h in data set [1] and in data set [2] was more than 10 µM throughout. Further, the IC50 with BXPC-3 and in the data set with MDA-MB-231 was more than 10 µM each time.
For `COC(=O)c1ccc2c(c1)NC(=O)/C2=C(\Nc1ccc(N(C)C(=O)C(C)N2CCNCC2)cc1)c1ccccc1` (racemic), the IC50 at 72 h in data set [1] and in data set [2] was more than 10 µM throughout. Besides, the IC50 with BXPC-3 and in the data set with MDA-MB-231 was more than 10 µM each time.
With `CC(C(=O)N(C)c1ccc(N/C(=C2\C(=O)Nc3cc(Br)ccc32)c2ccccc2)cc1)N1CCC(N(C)C)CC1` (racemic), the values for the IC50 at 72 h in data set [1] and in data set [2] were 1.59 µM and 1.11 µM, respectively. The IC50 with BXPC-3 came out at 1.74 µM; in the data set with MDA-MB-231, 1.49 µM.
`CCN1CCN(C(C)C(=O)N(C)c2ccc(N/C(=C3\C(=O)Nc4cc(C(=O)OC)ccc43)c3ccccc3)cc2)CC1` (racemic): the half-maximal inhibitory concentration (IC50) at 72 h in data set [1] was determined as 2.1 µM; in data set [2] it was 1.5 µM. Moreover, the IC50 was found to be 1.64 µM with BXPC-3 and 5.07 µM in the data set with MDA-MB-231.
As to `COC(=O)c1ccc2c(c1)NC(=O)/C2=C(\Nc1ccc(N(C)C(=O)C(C)N(C)CCN(C)C)cc1)c1ccccc1` (racemic), the figures for the IC50 at 72 h in data set [1] and in data set [2] were 2.57 µM and 2 µM, respectively. The values for the IC50 with BXPC-3 and in the data set on MDA-MB-231 were 5.78 µM and 5.98 µM, respectively.
As to `COC(=O)c1ccc2c(c1)NC(=O)/C2=C(\Nc1ccc(N(C)C(=O)C(C)N2CCC(N(C)C)CC2)cc1)c1ccccc1` (racemic), the IC50 at 72 h in data set [1] amounted to 1.99 µM; in data set [2], 1.08 µM. The IC50 in the data set on BXPC-3 was determined as 1.69 µM; in the data set with MDA-MB-231, 5.54 µM.
Take `COC(=O)c1ccc2c(c1)NC(=O)/C2=C(\Nc1ccc(N(C)C(=O)CN2CCCN(C)CC2)cc1)c1ccccc1`: the IC50 at 72 h was determined as 3.82 µM in data set [1] and 2.91 µM in data set [2]. The IC50 with BXPC-3 turned out to be 3.73 µM; with MDA-MB-231, 7.83 µM.
In the case of `CCN1CCN(CC(=O)N(C)c2ccc(N/C(=C3\C(=O)Nc4cc(C(=O)OC)ccc43)c3ccccc3)cc2)CC1`, the IC50 at 72 h in data set [1] was 3.44 µM; in data set [2], 2.72 µM. In addition, the values for the IC50 in the data set on BXPC-3 and in the data set on MDA-MB-231 were 2.31 µM and 5.98 µM, respectively.
The matching figures for `COC(=O)c1ccc2c(c1)NC(=O)/C2=C(\Nc1ccc(N(C)C(=O)C(C)N2CCN(C)CC2)cc1)c1ccccc1` (racemic): 2.25 µM, 1.43 µM, 3.74 µM and 5.34 µM.
Consider `CN(C(=O)CN1CCC(N(C)C)CC1)c1ccc(N/C(=C2\C(=O)Nc3cc(Br)ccc32)c2ccccc2)cc1`, for which the IC50 at 72 h amounted to 2.31 µM in data set [1] and 1.94 µM in data set [2]. The results for the IC50 in the data set on BXPC-3 and in the data set with MDA-MB-231 were 3.02 µM and 2.97 µM, respectively.
As for `CCN1CCN(C(C)C(=O)N(C)c2ccc(N/C(=C3\C(=O)Nc4cc(Br)ccc43)c3ccccc3)cc2)CC1` (racemic), the IC50 at 72 h was 1.87 µM in data set [1] and 0.67 µM in data set [2]. For the same compound, the IC50 in the data set on BXPC-3 is 2.44 µM; in the data set with MDA-MB-231, 2.47 µM.
For `CN(C)CCN(C)CC(=O)N(C)c1ccc(N/C(=C2\C(=O)Nc3cc(Br)ccc32)c2ccccc2)cc1`, the figures for the IC50 at 72 h in data set [1] and in data set [2] were 5.89 µM and 4.71 µM, respectively. Besides, the IC50 in the data set with BXPC-3 amounted to 4.22 µM; in the data set with MDA-MB-231 it was 4.96 µM.
For `CN(C(=O)CN1CCN(CCO)CC1)c1ccc(N/C(=C2\C(=O)Nc3cc(Cl)ccc32)c2ccccc2)cc1` the same measures were 2.2 µM, 1.65 µM, 1.54 µM and 1.35 µM.
As for `CC(C(=O)N(C)c1ccc(N/C(=C2\C(=O)Nc3cc(Br)ccc32)c2ccccc2)cc1)N1CCN(CCO)CC1` (racemic), the IC50 at 72 h in data set [1] stood at 2.11 µM; in data set [2], 1.98 µM. Besides, the IC50 with BXPC-3 is 2.31 µM; with MDA-MB-231 it was 2.06 µM.
For `COC(=O)c1ccc2c(c1)NC(=O)/C2=C(\Nc1ccc(N(C)C(=O)C(C)N2CCCN(C)CC2)cc1)c1ccccc1` (racemic) the same measures were 2.93 µM, 1.81 µM, 1.66 µM and 5.78 µM.
In the case of `CC(C(=O)N(C)c1ccc(N/C(=C2\C(=O)Nc3cc(Cl)ccc32)c2ccccc2)cc1)N1CCOCC1` (racemic), the IC50 at 72 h in data set [1] and in data set [2] was more than 10 µM throughout. Further, the IC50 in the data set with BXPC-3 and with MDA-MB-231 was more than 10 µM throughout.
`COC(=O)c1ccc2c(c1)NC(=O)/C2=C(\Nc1ccc(N(C)C(=O)CN(C)CCN(C)C)cc1)c1ccccc1`: the values for the IC50 at 72 h in data set [1] and in data set [2] were 3.57 µM and 2.97 µM, respectively. Besides, the IC50 in the data set with BXPC-3 is 6.01 µM; with MDA-MB-231 it was more than 10 µM.
With `COC(=O)c1ccc2c(c1)NC(=O)/C2=C(\Nc1ccc(N(C)C(=O)[C@@H](C)N2CCN(C)CC2)cc1)c1ccccc1`, the IC50 at 72 h amounted to 3.75 µM in data set [1] and 1.36 µM in data set [2].
Take `COC(=O)c1ccc2c(c1)NC(=O)/C2=C(\Nc1ccc(N(C)C(=O)C(C)N2CCOCC2)cc1)c1ccccc1` (racemic): the IC50 at 72 h in data set [1] and in data set [2] was more than 10 µM in each case. In addition, the IC50 with BXPC-3 and in the data set on MDA-MB-231 was more than 10 µM in each case.
Turning to `COC(=O)c1ccc2c(c1)NC(=O)/C2=C(\Nc1ccc(N(C)C(=O)CN2CCC(N(C)C)CC2)cc1)c1ccccc1`, the IC50 at 72 h in data set [1] worked out at 3.51 µM; in data set [2], 2.97 µM. In addition, the IC50 in the data set with BXPC-3 came out at 2.56 µM; in the data set on MDA-MB-231, 6.34 µM.
For `CCN1CCN(CC(=O)N(C)c2ccc(N/C(=C3\C(=O)Nc4cc(Br)ccc43)c3ccccc3)cc2)CC1`, the IC50 at 72 h in data set [1] turned out to be 3.2 µM; in data set [2], 1.57 µM. Besides, the figures for the IC50 in the data set on BXPC-3 and with MDA-MB-231 were 3.57 µM and 3.91 µM, respectively.
On to `CN1CCCN(CC(=O)N(C)c2ccc(N/C(=C3\C(=O)Nc4cc(Br)ccc43)c3ccccc3)cc2)CC1`, for which the IC50 at 72 h in data set [1] amounted to 5.98 µM; in data set [2], 3.19 µM. In addition, the IC50 in the data set on BXPC-3 came to 2.15 µM; in the data set on MDA-MB-231, 3.29 µM.
For `CC(C(=O)N(C)c1ccc(N/C(=C2\C(=O)Nc3cc(Br)ccc32)c2ccccc2)cc1)N(C)CCN(C)C` (racemic) the same measures were 0.77 µM, 1.77 µM, 3.74 µM and 4.54 µM.
For `CC(C(=O)N(C)c1ccc(N/C(=C2\C(=O)Nc3cc(Cl)ccc32)c2ccccc2)cc1)N1CCC(N(C)C)CC1` (racemic), the IC50 at 72 h in data set [1] came out at 0.98 µM; in data set [2], 0.83 µM. For the same compound, the results for the IC50 with BXPC-3 and with MDA-MB-231 were 2.04 µM and 1.98 µM, respectively.
The matching figures for `COC(=O)c1ccc2c(c1)NC(=O)/C2=C(\Nc1ccc(N(C)C(=O)CN2CCOCC2)cc1)c1ccccc1`: more than 10 µM, more than 10 µM, more than 10 µM and more than 10 µM.
For the compound `CCN1CCN(CC(=O)N(C)c2ccc(N/C(=C3\C(=O)Nc4cc(Cl)ccc43)c3ccccc3)cc2)CC1`, the IC50 at 72 h in data set [1] was 1.95 µM; in data set [2] it was 1.85 µM. Besides, the IC50 is 1.78 µM in the data set on BXPC-3 and 3.19 µM in the data set on MDA-MB-231.
For `CC(C(=O)N(C)c1ccc(N/C(=C2\C(=O)Nc3cc(Cl)ccc32)c2ccccc2)cc1)N1CCN(C)CC1` (racemic) the same measures were 1.43 µM, 0.84 µM, 1.89 µM and 1.24 µM.
For `CC(C(=O)N(C)c1ccc(N/C(=C2\C(=O)Nc3cc(Cl)ccc32)c2ccccc2)cc1)N1CCCN(C)CC1` (racemic), the 50% inhibitory concentration (IC50) at 72 h in data set [1] amounted to 2.2 µM; in data set [2] it was 0.69 µM. In addition, the IC50 turned out to be 1.74 µM in the data set on BXPC-3 and 2.04 µM in the data set on MDA-MB-231.
As for `CN1CCCN(CC(=O)N(C)c2ccc(N/C(=C3\C(=O)Nc4cc(Cl)ccc43)c3ccccc3)cc2)CC1`, the figures for the IC50 at 72 h in data set [1] and in data set [2] were 4.52 µM and 4.98 µM, respectively. Further, the results for the IC50 in the data set with BXPC-3 and with MDA-MB-231 were 3.14 µM and 3.87 µM, respectively.
With `CC(C(=O)N(C)c1ccc(N/C(=C2\C(=O)Nc3cc(Br)ccc32)c2ccccc2)cc1)N1CCSCC1` (racemic), the IC50 at 72 h in data set [1] and in data set [2] was more than 10 µM in each case. Besides, the IC50 in the data set on BXPC-3 and with MDA-MB-231 was more than 10 µM in each case.
For the compound `COC(=O)c1ccc2c(c1)NC(=O)/C2=C(\Nc1ccc(N(C)C(=O)C(C)N2CCN(CCO)CC2)cc1)c1ccccc1` (racemic), the IC50 at 72 h in data set [1] came out at 1.37 µM; in data set [2], 1.09 µM. The IC50 was 2.47 µM in the data set on BXPC-3 and 4.96 µM in the data set on MDA-MB-231.
With `CC(C(=O)N(C)c1ccc(N/C(=C2\C(=O)Nc3cc(Cl)ccc32)c2ccccc2)cc1)N1CCSCC1` (racemic), the IC50 at 72 h in data set [1] and in data set [2] was more than 10 µM in each case. The IC50 in the data set with BXPC-3 and in the data set with MDA-MB-231 was more than 10 µM each time.
Turning to `CN(C(=O)CN1CCN(CCO)CC1)c1ccc(N/C(=C2\C(=O)Nc3cc(Br)ccc32)c2ccccc2)cc1`, the IC50 at 72 h was determined as 2.95 µM in data set [1] and 2.49 µM in data set [2]. For the same compound, the IC50 with BXPC-3 turned out to be 3.57 µM; with MDA-MB-231, 3.21 µM.
